Laboratory results as given in ChEMBL document CHEMBL1201862, “PubChem BioAssay data set” (2004).
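Compound exposure: 48 hours, 5 concentrations, 96-well plates. Here, GI50 denotes the concentration required for 50% inhibition of growth.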 Calls of active or inactive are those of the source. Rule as the data show it: active = GI50 up to about 1.1 µM and inactive = higher.

Columns and labels:
Assay in all cases: NCI tumour cell line growth inhibition, 48 h
[1] = tested on: A549
[2] = tested on: HCC 2998
[3] = tested on: RXF 393
[4] = tested on: U-251
[5] = tested on: MDA-MB-231
[6] = tested on: IGROV-1
[7] = tested on: RPMI-8226
[8] = tested on: NCI-H23
[9] = tested on: CAKI-1
[10] = tested on: SNB-75
[11] = tested on: CCRF-CEM
[12] = tested on: SF-268
[13] = tested on: M14
[14] = tested on: SW-620
[15] = tested on: HCT-116
[16] = tested on: MOLT-4
[17] = tested on: SR
[18] = tested on: 786-0
[19] = tested on: SK-MEL-28
[20] = tested on: MDA-N
[21] = tested on: TK-10
[22] = tested on: NCI-H226
[23] = tested on: OVCAR-3
[24] = tested on: MDA-MB-435
[25] = tested on: NCI/ADR-RES
[26] = tested on: Hs-578T
[27] = tested on: HOP-62
[28] = tested on: SF-539
[29] = tested on: MCF7
[30] = tested on: UACC-257
[31] = tested on: HOP-92
[32] = tested on: SK-OV-3
[33] = tested on: OVCAR-5
[34] = tested on: HT-29
[35] = tested on: NCI-H522
[36] = tested on: SK-MEL-2
[37] = tested on: DU-145
[38] = tested on: COLO 205
[39] = tested on: SF-295
[40] = tested on: T47D
[41] = tested on: UACC-62
[42] = tested on: ACHN
[43] = tested on: NCI-H460
[44] = tested on: HL-60
[45] = tested on: OVCAR-8
[46] = tested on: SNB-19
[47] = tested on: SK-MEL-5
[48] = tested on: LOX IMVI
[49] = tested on: A498
[50] = tested on: KM12
[51] = tested on: UO-31
[52] = tested on: K562
[53] = tested on: EKVX
[54] = tested on: HCT-15
[55] = tested on: SN12C
[56] = tested on: OVCAR-4
[57] = tested on: PC-3
[58] = tested on: BT-549
[59] = tested on: Malme-3M

Cc1c(C2=C(Br)C(=O)N(C)C2=O)c(=O)n(C)c(=O)n1C
GI50 [1]: > 100 µM (inactive) | GI50 [2]: 22.2 µM (inactive) | GI50 [3]: 14.3 µM (inactive) | GI50 [4]: 63.1 µM (inactive) | GI50 [5]: 25.2 µM (inactive) | GI50 [6]: 18 µM (inactive) | GI50 [7]: 15.1 µM (inactive) | GI50 [8]: 20.7 µM (inactive) | GI50 [9]: 19 µM (inactive) | GI50 [10]: > 100 µM (inactive) | GI50 [11]: 12.2 µM (inactive) | GI50 [12]: 43.5 µM (inactive) | GI50 [13]: 35.1 µM (inactive) | GI50 [14]: 31.4 µM (inactive) | GI50 [15]: 20.5 µM (inactive) | GI50 [16]: 15.8 µM (inactive) | GI50 [17]: 23.1 µM (inactive) | GI50 [18]: 17.5 µM (inactive) | GI50 [19]: 39.4 µM (inactive) | GI50 [20]: 28.1 µM (inactive) | GI50 [21]: 17.4 µM (inactive) | GI50 [22]: > 100 µM (inactive) | GI50 [23]: 37.2 µM (inactive) | GI50 [24]: 24.9 µM (inactive) | GI50 [25]: 27.8 µM (inactive) | GI50 [26]: > 100 µM (inactive) | GI50 [27]: > 100 µM (inactive) | GI50 [28]: 14.9 µM (inactive) | GI50 [29]: 20.2 µM (inactive) | GI50 [30]: 17.4 µM (inactive) | GI50 [31]: 17.7 µM (inactive) | GI50 [32]: > 100 µM (inactive) | GI50 [33]: 61.8 µM (inactive) | GI50 [34]: 20.3 µM (inactive) | GI50 [35]: 13.6 µM (inactive) | GI50 [36]: 16.1 µM (inactive) | GI50 [37]: 28 µM (inactive) | GI50 [38]: 15.3 µM (inactive) | GI50 [39]: > 100 µM (inactive) | GI50 [40]: 19.8 µM (inactive) | GI50 [41]: 34.4 µM (inactive) | GI50 [42]: 26.7 µM (inactive) | GI50 [43]: 45.6 µM (inactive) | GI50 [44]: 17.1 µM (inactive) | GI50 [45]: 29.6 µM (inactive) | GI50 [46]: > 100 µM (inactive) | GI50 [47]: 22 µM (inactive) | GI50 [48]: 17.1 µM (inactive) | GI50 [49]: 29.4 µM (inactive) | GI50 [50]: > 100 µM (inactive) | GI50 [51]: 18.5 µM (inactive) | GI50 [52]: 21.3 µM (inactive) | GI50 [53]: 21.6 µM (inactive) | GI50 [54]: 19.4 µM | GI50 [55]: 95.1 µM (inactive) | GI50 [56]: 37.7 µM (inactive) | GI50 [57]: 23.6 µM (inactive) | GI50 [58]: 24.3 µM (inactive)

CC[C@]12C=CCN3CC[C@@]4(c5cc(N=O)c(OC)cc5N(C)[C@H]4[C@@](O)(C(=O)OC)[C@@H]1OC(C)=O)[C@@H]32
GI50 [1]: 58.9 µM (inactive) | GI50 [59]: 71.3 µM (inactive) | GI50 [2]: > 100 µM (inactive) | GI50 [3]: 44.1 µM (inactive) | GI50 [4]: 16.7 µM (inactive) | GI50 [5]: 39.4 µM (inactive) | GI50 [6]: > 100 µM (inactive) | GI50 [8]: > 100 µM (inactive) | GI50 [9]: 41 µM (inactive) | GI50 [10]: 57.7 µM (inactive) | GI50 [11]: 21.6 µM (inactive) | GI50 [12]: > 100 µM (inactive) | GI50 [13]: 89.5 µM (inactive) | GI50 [14]: 31.6 µM (inactive) | GI50 [15]: 50.7 µM (inactive) | GI50 [16]: 35.6 µM (inactive) | GI50 [17]: 47.8 µM (inactive) | GI50 [18]: 42.9 µM (inactive) | GI50 [19]: > 100 µM (inactive) | GI50 [20]: 20.1 µM (inactive) | GI50 [21]: > 100 µM (inactive) | GI50 [22]: > 100 µM (inactive) | GI50 [23]: 48 µM (inactive) | GI50 [24]: 25.1 µM (inactive) | GI50 [25]: > 100 µM (inactive) | GI50 [26]: 73.5 µM (inactive) | GI50 [27]: 61 µM (inactive) | GI50 [28]: 27.6 µM (inactive) | GI50 [29]: 24.5 µM (inactive) | GI50 [30]: > 100 µM (inactive) | GI50 [31]: > 100 µM (inactive) | GI50 [32]: > 100 µM (inactive) | GI50 [33]: > 100 µM (inactive) | GI50 [34]: 48.5 µM (inactive) | GI50 [35]: 18.5 µM (inactive) | GI50 [36]: 18 µM (inactive) | GI50 [37]: > 100 µM (inactive) | GI50 [38]: 38.2 µM (inactive) | GI50 [39]: 99.5 µM (inactive) | GI50 [40]: 35 µM (inactive) | GI50 [41]: 51.4 µM (inactive) | GI50 [42]: 61.7 µM (inactive) | GI50 [43]: 92.3 µM (inactive) | GI50 [44]: 37.8 µM (inactive) | GI50 [45]: > 100 µM (inactive) | GI50 [46]: > 100 µM (inactive) | GI50 [47]: 37.9 µM (inactive) | GI50 [48]: 34.1 µM (inactive) | GI50 [49]: > 100 µM (inactive) | GI50 [50]: 90.8 µM (inactive) | GI50 [51]: > 100 µM (inactive) | GI50 [52]: 46.7 µM (inactive) | GI50 [53]: > 100 µM (inactive) | GI50 [54]: 86.3 µM | GI50 [55]: 34.3 µM (inactive) | GI50 [56]: > 100 µM (inactive) | GI50 [57]: 40.8 µM (inactive) | GI50 [58]: > 100 µM (inactive)
